Test system: cattle liquid manure
Test: Example 5: methane and CO2 emissions from cattle liquid manure during 170 days storage with Compositions 1, 2, 4, 5, 6
Conditions: cf. Example 5
Experimental: After stirring, the pH value and conductivity in the mixture were measured, and then the wide-neck container was immediately sealed tightly. An opening was drilled in the lid of the wide-neck container, in which a sealed gas storage bag (nominal volume 5.6 liters) was connected and in which the released gas volume was collected. This structure prevented atmospheric oxygen from entering the wide-neck container. This prevented CO2 from the air from falsifying the measurement results. The mixture was stored for exactly 170 days without stirring or agitation at a temperature of 23±1° C. and at an air pressure of 960 to 980 hPa and at 493 m above standard sea level (NHN). At regular intervals, the filled gas storage bag was exchanged, the stored gas volume was determined volumetrically, and the gas composition was analyzed by gas chromatography. […] After stirring, the pH value and conductivity in the mixture were measured, and then the wide-neck container was immediately sealed tightly. […] At regular intervals, the filled gas storage bag was exchanged, the stored gas volume was determined volumetrically, and the gas composition was analyzed by gas chromatography. […] After stirring, the pH value and conductivity in the mixture were measured, and then the wide-neck container was immediately sealed tightly. […]

SMILES | Effect alone on the emission of methane and carbon dioxide
O=C([O-])[O-].[Ca+2] [calcium carbonate] | no impact
[Ca+2].[OH-].[OH-] [calcium hydroxide] | additional effect

Reference: patent publication US12454494B2, “Process for the reduction of gas emission from farm manure” (Alzchem Trostberg GmbH, priority 2018, dated 2025)
